Results reported in patent EP4154876B1, “CBX7 INHIBITOR FOR USE IN THE TREATMENT AND/OR PREVENTION OF A BLOOD VESSEL DISORDER” (Universität Potsdam, priority 2021, dated 2023).
Where a SMILES comes first, the peptide text is derived from it. [ ]: non-standard residue; d: D form. The star is where a group is joined. Benzoyl(4-tBu) = CC(C)(C)c1ccc(C(=O)*)cc1; Lys(Et2) = CCN(CC)CCCC[C@H](N)C(=O)O

Experiments:
chromodomains of CBX7 = target: T1, chromodomains of CBX7 (Homo sapiens, UniProt O95931); settings: CBX7 chromodomain; cited from earlier work
T1 sequence (O95931 11-69 limits assumed): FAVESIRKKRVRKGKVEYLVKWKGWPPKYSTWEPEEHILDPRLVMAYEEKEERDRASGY

ccm2 mutants = assay: Pharmacological treatment of zebrafish ccm2 mutants (CCM disease model); assay type: in vivo; settings: for posterior caudal vein plexus: ccm2 mutants after treatment with inhibitor, Fig. 4A right column; for heart phenotype (strongly enlarged and ballooning heart): ccm2 mutants treated with inhibitor, Fig. 4A left column
Method: In ccm2 mutants the heart is strongly enlarged and ballooning. In ccm2 mutants treated with MS37452 or MS351, this phenotype is suppressed and is reminiscent of wild type. Similarly, the posterior caudal vein plexus in ccm2 mutants is fenestrated after treatment with the inhibitors. Quantifications of these phenotype classes are in B). To elucidate whether a pharmacological suppression of Cbx7a has the same effect on the zebrafish CCM model, specific small compound inhibitors of CBX7 were tested (MS37452 and MS351). Both inhibitors block the binding of CBX7 to histone modifications on genomic DNA and suppress the epigenetic function of this protein within the Polycomb repressive complex (PRC1) (Fig. 3). Both inhibitors suppress the expression of the CCM phenotype in zebrafish disease models (Fig. 4). The effects of both inhibitors are reminiscent of the genetic knockout of cbx7a in ccm2 mutants. Heart phenotypes is shown in Fig. 4A left column while the region of the posterior caudal vein plexus in Fig. 4A right column. In ccm2 mutants the heart is strongly enlarged and ballooning. In ccm2 mutants treated with MS37452 or MS351, this phenotype is suppressed and is reminiscent of wild type. Similarly, the posterior caudal vein plexus in ccm2 mutants is fenestrated after treatment with the inhibitors. Quantifications of these phenotype classes are shown Fig. 4B. The y-axis represents the ratio of the amounts of embryos with suppressed ballooning heart and abnormal caudal vein plexus phenotype to the amounts of embryos with ballooning heart and abnormal caudal vein plexus phenotype.

[1] = test system: ChDs from other CBX proteins including CBX1/3/5 (HP1β/γ/α) and CBX2/4/6/8; settings: cited from earlier work
CBX7ChD = target: T2, CBX7ChD (Homo sapiens, UniProt O95931); settings: estimated; determined by NMR titration; CBX7ChD alone; cited from earlier work
T2 sequence (O95931 11-69 limits assumed): T1 sequence (O95931 11-69 limits assumed)

CCN(CC)CCCC[C@H](NC(=O)[C@H](CC(C)C)NC(=O)[C@H](C)NC(=O)[C@H](Cc1ccccc1)NC(=O)c1ccc(C(C)(C)C)cc1)C(=O)N[C@@H](CO)C(=O)OC [UNC3866] ({Benzoyl(4-tBu)}-FAL[Lys(Et2)]S-OMe)
Kd (chromodomains of CBX7): ~0.1 µM

Cc1ccccc1Cn1c(=N)n(CC(O)c2ccc(Cl)c(Cl)c2)c2ccccc21.Cl (stereo not shown) [MS351]
posterior caudal vein plexus (ccm2 mutants): fenestrated | heart phenotype (strongly enlarged and ballooning heart) (ccm2 mutants): suppressed | binding to ChDs from other CBX proteins [1]: does not bind | Kd (CBX7ChD): ~500 µM

COc1cccc(C(=O)N2CCN(C(=O)COc3cccc(C)c3)CC2)c1OC [MS37452]
posterior caudal vein plexus (ccm2 mutants): fenestrated | heart phenotype (strongly enlarged and ballooning heart) (ccm2 mutants): suppressed
